# Counter-ions that a name gives are not always drawn.
# System: IRE-1α-mediated XBP-1 splicing in human myeloma MM.1s cells
# Assay: Cellular EC50: endogenous XBP-1 splicing in myeloma cells by RT-PCR (DTT stress)
# Assay type: cell-based
# Conditions: MM1.S, average cellular EC50, XBP-1 splicing in myeloma cells, read-out: EC50_av
# Description: Human myeloma MM.1s cells are incubated with a compound for 1.25 hours before stressing the cells with 2 mM dithiothreitol (DTT). After an additional 45 minutes (2 hours total) with compound and DTT, the cells are harvested with TRIZOL® (a mono-phasic solution of phenol and guanidine isothiocyanate), and total RNA is prepared as directed by the manufacturer (Invitrogen). Human XBP-1 is amplified by RT-PCR with the following primers, which flank the 26 base unconventional intron excised by IRE-1α:
# RT-PCR of unstressed (U) cells then generates the upper band. When cells are stressed (S) with the endoplasmic reticulum (ER) stressing agent DTT, IRE-1α is activated due to accumulating unfolded protein and the resulting RT-PCR, product is 26 base pairs shorter.
# Compounds which pass specificity assays are assayed for cellular EC50 using endogenous XBP-1 splicing in myeloma cells. XBP-1 is regulated through the excision of a 26 nucleotide intron from the XBP-1 mRNA by the highly specific endoribonuclease activity of IRE-1α. […] This splicing event is used to measure IRE-1α activity on XBP-1 mRNA in cells and tissues.
# Briefly, compounds are incubated in the presence or absence of an ER stress agent (e.g., DTT), and the ratio of XBP-1u (unspliced) to XBP-1 s (spliced) is quantified by RT-PCR. The ED50 is determined as the 50% XBP-1s to total XPB-1 levels.
row,Compound,EC50 [µM]
1,"Cc1cc(=O)oc2c(C=O)c(O)c(F)cc12 [Example 23, hydrochloride]",< 10
2,COc1cc(O)c(C=O)c2oc(=O)c(CCC(=O)NCCN(C)C)c(C)c12 [Example 195],< 10
3,COc1cc(O)c(C=O)c2oc(=O)c(C)c(CN(C)C)c12 [Example 135],< 10
4,COCCc1c(C)c2c(O)cc(O)c(C=O)c2oc1=O [Example 123],< 10
5,CN(C)CCNC(=O)CCc1cc2c(C=O)c(O)ccc2s1 [Example 271],< 10
6,O=Cc1c(O)ccc2oc(C(=O)NCCN3CCOCC3)cc12 [Example 286],< 10
7,CCOC(=O)Cc1c(C)c2c(OCCOC)cc(O)c(C=O)c2oc1=O [Example 158],< 10
8,COCCNC(=O)CCc1c(C)oc2c(C=O)c(O)c(OC)cc2c1=O [Example 212],> 10
9,Cc1oc2c(C=O)c(O)ccc2c(=O)c1CCC(=O)NCCN1CCOCC1 [Example 219],> 10
10,COc1cc2c(=O)c(CCC(=O)NCCN(C)C)c(C)oc2c(C=O)c1O [Example 214],> 10
11,CCOC(=O)c1cc2c(C=O)c(O)ccc2o1 [Example 280],> 10
12,Cc1oc2c(C=O)c(O)ccc2c(=O)c1CC(=O)N1CCOCC1 [Example 221],> 10
13,COc1cc(O)c(C=O)c2oc(=O)c(CC(=O)N3CCN(C)CC3)c(C)c12 [Example 178],< 10
14,O=Cc1c(O)ccc2oc(CCC(=O)NCCN3CCOCC3)nc12 [Example 253],< 10
15,COCCOc1cc(O)c(C=O)c2oc(=O)c(CC(=O)NCCN(C)C)c(C)c12 [Example 164],> 10
16,CN1CCN(C(=O)CCc2nc3c(C=O)c(O)ccc3n2C)CC1 [Example 244],> 10
17,Cc1c(-c2ccc(C(=O)N3CCN(C)CC3)cc2)c(=O)oc2c(C=O)c(O)ccc12 [Example 2],< 10
18,Cc1c(-c2cccc(C(=O)N3CCOCC3)c2)c(=O)oc2c(C=O)c(O)ccc12 [Example 13],< 10
19,COc1cc(O)c(C=O)c2oc(=O)c(C)c(CN3CCOCC3)c12 [Example 134],< 10
20,CN1CCN(C(=O)c2cc3c(C=O)c(O)ccc3s2)CC1 [Example 260],> 10
21,COCCNC(=O)CCc1nc2c(C=O)c(O)ccc2n1C [Example 241],> 10
22,CCNC(=O)Cc1c(C)c2cc(OCCOC)c(O)c(C=O)c2oc1=O [Example 191],< 10

row,Compound,EC50 [µM]
1,CCNC(=O)Cc1c(C)oc2c(C=O)c(O)cc(OC)c2c1=O [Example 228],< 10
2,COCCNC(=O)Cc1c(C)c2cc(OCCN3CCOCC3)c(O)c(C=O)c2oc1=O [Example 205],10
3,CC1CCN(C(=O)c2ccc(-c3nc4ccc(O)c(C=O)c4s3)cc2)CC1 [Compound 57],> 10
4,CCNC(=O)Cc1c(C)c2c(OCCOC)cc(O)c(C=O)c2oc1=O [Example 162],< 10
5,CCNC(=O)c1cc2c(C=O)c(O)ccc2[nH]1 [Example 276],> 10
6,Cn1c(CCC(=O)O)nc2ccc(O)c(C=O)c21 [Example 240],> 10
7,CN(C)CCNC(=O)c1cc2c(C=O)c(O)ccc2[nH]1 [Example 278],> 10
8,O=Cc1c(O)ccc2nc(-c3ccc(C(=O)NCCN4CCOCC4)cc3)[nH]c12 [Compound 60],> 10
9,CCNC(=O)CCc1nc2c(C=O)c(O)ccc2[nH]1 [Example 234],> 10
10,CCOC(=O)CCc1nc2c(C=O)c(O)ccc2n1C [Example 245],< 10
11,O=Cc1c(O)ccc2nc(-c3cccc(C(=O)N4CCCC4)c3)ccc12,> 10
12,COCCOc1cc(O)c(C=O)c2oc(=O)c(CC(=O)N3CCN(C)CC3)c(C)c12 [Example 161],< 10
13,COCCNC(=O)CCc1nc2c(C=O)c(O)ccc2[nH]1 [Example 231],> 10
14,COCCNC(=O)Cc1c(C)c2cc(OCCOC)c(O)c(C=O)c2oc1=O [Example 190],< 10
15,COc1cc2c(=O)c(CCC(=O)NCCN3CCOCC3)c(C)oc2c(C=O)c1O [Example 93],> 10
16,C=CCc1c(C)c2c(OC)cc(O)c(C=O)c2oc1=O [Example 126],< 10
17,O=Cc1c(O)ccc2sc(C(=O)N3CCOCC3)cc12 [Example 259],> 10
18,O=Cc1c(O)ccc2ocnc12 [Example 257],> 10
19,Cn1c(CCC(=O)NCCN2CCOCC2)nc2c(C=O)c(O)ccc21 [Example 243],> 10
20,O=Cc1c(O)ccc2oc(CCC(=O)O)nc12 [Example 248],> 10
21,CN1CCN(C(=O)c2cc3c(C=O)c(O)ccc3[nH]2)CC1 [Example 275],> 10
22,COc1cc2c(=O)c(CC(=O)N3CCOCC3)c(C)oc2c(C=O)c1O [Example 207],> 10

row,Compound,EC50 [µM]
1,O=Cc1c(O)ccc2nc(-c3ccc(C(=O)N4CCCC4)cc3)ccc12 [Compound 48],< 10
2,COc1cc(O)c(C=O)c2oc(C)c(CC(=O)N3CCOCC3)c(=O)c12 [Example 227],< 10
3,CN(C)CCNC(=O)CCc1nc2c(C=O)c(O)ccc2[nH]1 [Example 236],> 10
4,CCN(CC)CCc1c(C)c2ccc(O)c(C=O)c2oc1=O [Example 4],> 10
5,CCNC(=O)CCc1c(C)oc2c(C=O)c(O)ccc2c1=O [Example 217],< 10
6,CC(C(=O)N1CCOCC1)c1nc2c(C=O)c(O)ccc2o1 (stereo not drawn) [Example 254],> 10
7,COc1cc2c(=O)c(CC(=O)NCCN3CCOCC3)c(C)oc2c(C=O)c1O [Example 210],> 10
8,CCNC(=O)Cc1c(C)oc2c(C=O)c(O)c(OC)cc2c1=O [Example 209],< 10
9,COc1cc2c(=O)c(CC(=O)N3CCN(C)CC3)c(C)oc2c(C=O)c1O [Example 208],> 10
10,CCNC(=O)Cc1c(C)oc2c(C=O)c(O)ccc2c1=O [Example 223],< 10
11,CN(C)CCNC(=O)c1cc2c(C=O)c(O)ccc2s1 [Example 263],> 10
12,CC1CCN(C(=O)c2ccc(-c3ccc4c(C=O)c(O)ccc4n3)cc2)CC1 [Compound 47],> 10
13,CN1CCN(C2CCN(c3nc4ccc(O)c(C=O)c4s3)C2)CC1 (stereo not drawn) [Example 54],> 10
14,COCCNC(=O)Cc1c(C)oc2c(C=O)c(O)cc(OC)c2c1=O [Example 226],< 10
15,COCCc1c(C)c2cc(OC)c(O)c(C=O)c2oc1=O [Example 125],< 10
16,Cc1oc2c(C=O)c(O)ccc2c(=O)c1CC(=O)NCCN(C)C [Example 224],> 10
17,Cc1c(C)c2cc(OCCN3CCOCC3)c(O)c(C=O)c2oc1=O [Example 203],< 10
18,Cn1c(CCC(=O)NCCN2CCOCC2)nc2ccc(O)c(C=O)c21 [Example 238],> 10
19,COCCNC(=O)CCc1nc2ccc(O)c(C=O)c2n1C [Example 237],> 10
20,COC(=O)c1ccc(-c2nc3ccc(O)c(C=O)c3[nH]2)cc1 [Compound 59],> 10
21,COCCOc1cc(O)c(C=O)c2oc(=O)c(CC(=O)NCCN3CCOCC3)c(C)c12 [Example 163],< 10
22,COc1cc2c(C)c(CC(=O)N3CCOCC3)c(=O)oc2c(C=O)c1O [Example 167],< 10

# Same assay, conditions: MM1.S, read-out: EC50_av
row,Compound,EC50 [µM]
1,O=Cc1c(O)ccc2nc(N3CCC(NC(=O)CN4CCOCC4)C3)ccc12 (stereo not drawn) [Compound 50],< 10
2,Cc1c(-c2ccc(C(=O)N3CCCC3)cc2)c(=O)oc2c(C=O)c(O)ccc12 [Example 18],< 10
3,Cc1c(Br)c(=O)oc2c(C=O)c(O)c(F)cc12 [Example 9],< 10

# Reference: patent US9040714B2 (MannKind Corporation, priority 2010, dated 2015)
